# From patent US11802111B2, “Cyclobutyl amide monoacylglycerol lipase modulators” (Janssen Pharmaceutica NV, priority 2020, dated 2023)
# pIC50: −log10 of the molar value.
# Target: human MGL from HeLa cells (Homo sapiens (Human), UniProt Q99685)
# Test: MGL in vitro activity assay ([glycerol-1,3-3H]-oleoyl glycerol hydrolysis, activated carbon filtration)
# Type: biochemical
# Conditions: 300 nM [Glycerol-1,3-3H]-oleoyl glycerol, one hour
# Protocol: The assay used to measure the in vitro activity of MGL is adapted from the assay used for another serine hydrolase (FAAH) described in Wilson et al., 2003 (A high-throughput-compatible assay for determining the activity of fatty acid amide hydrolase. Wilson S J, Lovenberg T W, Barbier A J. Anal Biochem. 2003 Jul. 15; 318(2):270-5). The assay consists of combining endogenously expressed MGL from HeLa cells with test compounds, adding [glycerol-1,3-^3H]-oleyl glycerol, incubating for one hour, and then measuring the amount of cleaved [1,3-^3H]-glycerol that passes through an activated carbon filter. The amount of cleaved, tritiated glycerol passing through the carbon filter is proportional to the activity of the MGL enzyme in a particular well/test condition.
# Standard conditions for this assay combine 300 nM [Glycerol-1,3-^3H]-oleoyl glycerol with human MGL from HeLa cells and test compounds for one hour, after which the reaction is filtered through activated carbon and tritium is measured in the flow through. The test compound concentration in screening mode is 10 μM, while the highest compound concentration in IC50 assays is determined empirically. MGL is the predominant hydrolase in HeLa cells/cell homogenates.
# Chain of human MGL from HeLa cells (Q99685 whole entry): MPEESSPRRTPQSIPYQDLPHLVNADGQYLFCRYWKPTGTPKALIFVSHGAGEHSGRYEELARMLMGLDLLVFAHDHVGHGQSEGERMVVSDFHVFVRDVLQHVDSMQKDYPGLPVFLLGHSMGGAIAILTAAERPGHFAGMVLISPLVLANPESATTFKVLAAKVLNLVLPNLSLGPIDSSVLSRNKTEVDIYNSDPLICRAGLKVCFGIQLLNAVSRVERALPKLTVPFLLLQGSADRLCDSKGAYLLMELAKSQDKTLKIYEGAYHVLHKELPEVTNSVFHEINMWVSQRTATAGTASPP
row,pIC50,SMILES
1,8.34,"Cc1cc(C2CCC3(C2)CN(C(=O)[C@H]2C[C@@](C)(O)C2)C3)ccc1OC(F)F (mixture of isomers) [Example 72, (rac)-(6-(4-(Difluoromethoxy)-3-methylphenyl)-2-azaspiro[3.4]octan-2-yl)((1s,3s)-3-hydroxy-3-methylcyclobutyl)methanone]"
2,8.62,"Cc1cc(C2CC2)ccc1C1CCC2(C1)CN(C(=O)[C@H]1C[C@@](C)(O)C1)C2 (mixture of isomers) [Example 75, (rac)-(6-(4-Cyclopropyl-2-methylphenyl)-2-azaspiro[3.4]octan-2-yl)((1s,3s)-3-hydroxy-3-methylcyclobutyl)methanone]"
3,7.29,"COc1ccc(C2CCC3(C2)CN(C(=O)[C@H]2C[C@@](C)(O)C2)C3)cc1C (mixture of isomers) [Example 76, (rac)-((1s,3s)-3-Hydroxy-3-methylcyclobutyl)(6-(4-methoxy-3-methylphenyl)-2-azaspiro[3.4]octan-2-yl)methanone]"
4,7.92,"Cc1cc(C2CCC3(C2)CN(C(=O)[C@H]2C[C@@](C)(O)C2)C3)cc(C(F)(F)F)c1 (mixture of isomers) [Example 77, (rac)-((1s,3s)-3-Hydroxy-3-methylcyclobutyl)(6-(3-methyl-5-(trifluoromethyl)phenyl)-2-azaspiro[3.4]octan-2-yl)methanone]"
5,7.96,"Cc1ccc(C(F)(F)F)cc1C1CCC2(C1)CN(C(=O)[C@H]1C[C@@](C)(O)C1)C2 (mixture of isomers) [Example 78, (rac)-((1s,3s)-3-Hydroxy-3-methylcyclobutyl)(6-(2-methyl-5-(trifluoromethyl)phenyl)-2-azaspiro[3.4]octan-2-yl)methanone]"
6,6.62,"COc1cccc(C2CCC3(C2)CN(C(=O)[C@H]2C[C@@](C)(O)C2)C3)c1F (mixture of isomers) [Example 79, (rac)-(6-(2-Fluoro-3-methoxyphenyl)-2-azaspiro[3.4]octan-2-yl)((1s,3s)-3-hydroxy-3-methylcyclobutyl)methanone]"
7,6.98,"COc1cc(C)cc(C2CCC3(C2)CN(C(=O)[C@H]2C[C@@](C)(O)C2)C3)c1 (mixture of isomers) [Example 80, (rac)-((1s,3s)-3-Hydroxy-3-methylcyclobutyl)(6-(3-methoxy-5-methylphenyl)-2-azaspiro[3.4]octan-2-yl)methanone]"
8,7.70,"C[C@]1(O)C[C@@H](C(=O)N2CC3(CCC(c4cc(C5CC5)ccc4F)C3)C2)C1 (mixture of isomers) [Example 81, (rac)-(6-(5-Cyclopropyl-2-fluorophenyl)-2-azaspiro[3.4]octan-2-yl)((1s,3s)-3-hydroxy-3-methylcyclobutyl)methanone]"
9,7.51,"Cc1ccc(C2CCC3(C2)CN(C(=O)[C@H]2C[C@@](C)(O)C2)C3)cc1OC(F)F (mixture of isomers) [Example 82, (rac)-(6-(3-(Difluoromethoxy)-4-methylphenyl)-2-azaspiro[3.4]octan-2-yl)((1s,3s)-3-hydroxy-3-methylcyclobutyl)methanone]"
10,7.60,"Cc1cc(OC(F)F)ccc1C1CCC2(C1)CN(C(=O)[C@H]1C[C@@](C)(O)C1)C2 (mixture of isomers) [Example 83, (rac)-(6-(4-(Difluoromethoxy)-2-methylphenyl)-2-azaspiro[3.4]octan-2-yl)((1s,3s)-3-hydroxy-3-methylcyclobutyl)methanone]"
11,7.33,"Cc1cc(OC(F)F)cc(C2CCC3(C2)CN(C(=O)[C@H]2C[C@@](C)(O)C2)C3)c1 (mixture of isomers) [Example 84, (rac)-(6-(3-(Difluoromethoxy)-5-methylphenyl)-2-azaspiro[3.4]octan-2-yl)((1s,3s)-3-hydroxy-3-methylcyclobutyl)methanone]"
12,7.38,"Cc1ccc(OC(F)F)cc1C1CCC2(C1)CN(C(=O)[C@H]1C[C@@](C)(O)C1)C2 (mixture of isomers) [Example 85, (rac)-(6-(5-(Difluoromethoxy)-2-methylphenyl)-2-azaspiro[3.4]octan-2-yl)((1s,3s)-3-hydroxy-3-methylcyclobutyl)methanone]"
13,7.38,"COc1cc(Cl)cc(C2CCC3(C2)CN(C(=O)[C@H]2C[C@@](C)(O)C2)C3)c1 (mixture of isomers) [Example 86, (rac)-(6-(3-Chloro-5-methoxyphenyl)-2-azaspiro[3.4]octan-2-yl)((1s,3s)-3-hydroxy-3-methylcyclobutyl)methanone]"
14,6.98,"COc1cc(C2CCC3(C2)CN(C(=O)[C@H]2C[C@@](C)(O)C2)C3)ccc1Cl (mixture of isomers) [Example 87, (rac)-(6-(4-Chloro-3-methoxyphenyl)-2-azaspiro[3.4]octan-2-yl)((1s,3s)-3-hydroxy-3-methylcyclobutyl)methanone]"
15,7.23,"CC(C)c1cccc(C2CCC3(C2)CN(C(=O)[C@H]2C[C@](O)(C(F)(F)F)C2)C3)c1 (mixture of isomers) [Example 88, (rac)-((1s,3s)-3-Hydroxy-3-(trifluoromethyl)cyclobutyl)(6-(3-isopropylphenyl)-2-azaspiro[3.4]octan-2-yl)methanone]"
16,7.19,"CC(F)(F)c1cccc(C2CCC3(C2)CN(C(=O)[C@H]2C[C@@](C)(O)C2)C3)c1 (mixture of isomers) [Example 90, (rac)-(6-(3-(1,1-Difluoroethyl)phenyl)-2-azaspiro[3.4]octan-2-yl)((1s,3s)-3-hydroxy-3-methylcyclobutyl)methanone]"
17,7.24,"CCc1cccc(C2CCC3(C2)CN(C(=O)[C@H]2C[C@@](C)(O)C2)C3)c1 (mixture of isomers) [Example 91, (rac)-(6-(3-Ethylphenyl)-2-azaspiro[3.4]octan-2-yl)((1s,3s)-3-hydroxy-3-methylcyclobutyl)methanone]"
18,7.57,"Cc1ccc(C2CCC3(C2)CN(C(=O)[C@H]2C[C@@](C)(O)C2)C3)cc1C(F)F (mixture of isomers) [Example 92, (rac)-(6-(3-(Difluoromethyl)-4-methylphenyl)-2-azaspiro[3.4]octan-2-yl)((1s,3s)-3-hydroxy-3-methylcyclobutyl)methanone]"
19,7.70,"Cc1cc(OC(F)(F)F)cc(C2CCC3(C2)CN(C(=O)[C@H]2C[C@@](C)(O)C2)C3)c1 (mixture of isomers) [Example 93, (rac)-((1s,3s)-3-Hydroxy-3-methylcyclobutyl)(6-(3-methyl-5-(trifluoromethoxy)phenyl)-2-azaspiro[3.4]octan-2-yl)methanone]"
20,7.22,"Cc1cc(C(F)F)cc(C2CCC3(C2)CN(C(=O)[C@H]2C[C@@](C)(O)C2)C3)c1 (mixture of isomers) [Example 94, (rac)-(6-(3-(Difluoromethyl)-5-methylphenyl)-2-azaspiro[3.4]octan-2-yl)((1s,3s)-3-hydroxy-3-methylcyclobutyl)methanone]"
21,6.54,"COc1c(C)cccc1C1CCC2(C1)CN(C(=O)[C@H]1C[C@@](C)(O)C1)C2 (mixture of isomers) [Example 95, (rac)-((1s,3s)-3-Hydroxy-3-methylcyclobutyl)(6-(2-methoxy-3-methylphenyl)-2-azaspiro[3.4]octan-2-yl)methanone]"
22,7.74,"CCc1ccc(C2CCC3(C2)CN(C(=O)[C@H]2C[C@@](C)(O)C2)C3)cc1 (mixture of isomers) [Example 96, (rac)-(6-(4-Ethylphenyl)-2-azaspiro[3.4]octan-2-yl)((1s,3s)-3-hydroxy-3-methylcyclobutyl)methanone]"
23,6.18,"C[C@]1(O)C[C@@H](C(=O)N2CC3(CCC(c4ccn5nccc5c4)C3)C2)C1 (mixture of isomers) [Example 97, (rac)-((1s,3s)-3-Hydroxy-3-methylcyclobutyl)(6-(pyrazolo[1,5-a]pyridin-5-yl)-2-azaspiro[3.4]octan-2-yl)methanone]"
24,6.53,"Cc1cccc(C)c1C1CCC2(C1)CN(C(=O)[C@H]1C[C@@](C)(O)C1)C2 (mixture of isomers) [Example 98, (rac)-(6-(2,6-Dimethylphenyl)-2-azaspiro[3.4]octan-2-yl)((1s,3s)-3-hydroxy-3-methylcyclobutyl)methanone]"
25,5.23,"Cn1cc(C2CCC3(C2)CN(C(=O)[C@H]2C[C@@](C)(O)C2)C3)cn1 (mixture of isomers) [Example 99, (rac)-((1s,3s)-3-Hydroxy-3-methylcyclobutyl)(6-(1-methyl-1H-pyrazol-4-yl)-2-azaspiro[3.4]octan-2-yl)methanone]"
26,5.05,"Cn1cc(C2CCC3(C2)CN(C(=O)[C@H]2C[C@@](C)(O)C2)C3)c(C(F)(F)F)n1 (mixture of isomers) [Example 100, (rac)-((1s,3s)-3-Hydroxy-3-methylcyclobutyl)(6-(1-methyl-3-(trifluoromethyl)-1H-pyrazol-4-yl)-2-azaspiro[3.4]octan-2-yl)methanone]"
27,6.12,"Cn1nc(C(F)(F)F)cc1C1CCC2(C1)CN(C(=O)[C@H]1C[C@@](C)(O)C1)C2 (mixture of isomers) [Example 101, (rac)-((1s,3s)-3-Hydroxy-3-methylcyclobutyl)(6-(1-methyl-3-(trifluoromethyl)-1H-pyrazol-5-yl)-2-azaspiro[3.4]octan-2-yl)methanone]"
28,6.52,"Cn1ncc2cc(C3CCC4(C3)CN(C(=O)[C@H]3C[C@@](C)(O)C3)C4)ccc21 (mixture of isomers) [Example 102, (rac)-((1s,3s)-3-Hydroxy-3-methylcyclobutyl)(6-(1-methyl-1H-indazol-5-yl)-2-azaspiro[3.4]octan-2-yl)methanone]"
29,8.13,"Cc1ccc(C2CCC3(C2)CN(C(=O)[C@H]2C[C@@](C)(O)C2)C3)cc1OC(F)(F)F (mixture of isomers) [Example 107, (rac)-((1s,3s)-3-Hydroxy-3-methylcyclobutyl)(6-(4-methyl-3-(trifluoromethoxy)phenyl)-2-azaspiro[3.4]octan-2-yl)methanone]"
